SMILES strings stand for the structures. ≈ marks a conversion by molar mass, not a printed value. Entries after “also recorded” stand apart in the source; their conditions may differ.

The test system of data set [1] is Trichomonas vaginalis. In words: In vitro antiparasitic activity against Trichomonas vaginalis. The class given is cell-based. The note with it: for IC50: Trichomonas vaginalis, 72 h, 3 days at 37° C., read-out: ED50 (the source's name). The procedure: (§1) The antiparasitic activities of the 1-(5'-0-sulfamoyl-β-D-ribofuranosyl)[1,2,4]triazolo 3-carboxamide, 3-thiocarboxamide and 3-carbonitrile compounds of the invention are shown in various in vitro and in vivo systems. […] These are representative of the protozoan diseases: leishmaniasis, trypanosomiasis, giardiasis and trichomoniasis.
(§2) Giardia lamblia (PI, ATCC #30888) and Trichomonas vaqinalis (ATCC #3301) were grown in modified TYI medium in 13×100 mm screw cap tubes as described in R. L. Berens and J. J. Marr, Biochem. Pharm., 35, 4191 (1986). Cultures were inoculated at a density of 10^4 and incubated for 3 days at 37° C.; control cultures reached densities of ≈1-2·10^6 for G. lamblia and ≈6-7·10^6 for T. vaqinalis. These parasites were counted by chilling tubes on ice for 30 min., then reading the optical density at 650 nm in a Gilford 300-N micro-sample spectrophotometer. Their cell number was obtained by comparing the absorbance to a standard curve constructed from numbers obtained by counting cells in a hemocytometer.
(§3) Drug stock solutions were prepared by dissolving the compounds of the invention in 0.1N NaOH and adjusting the final concentration to 2 mg/ml based on extinction coefficient. Drug was added to respective culture media (<2% v/v) and the media filter sterilized. Doses effective against 50% (ED50) and 90% (ED90) were determined by triplicate counting of organisms exposed to various drug concentrations and determining a mean value. Results were expressed as a percentage control.

In data set [2] the test system is Leishmania donovani. In words: In vitro antiparasitic activity against Leishmania donovani. The class given is cell-based. The following applies: for IC50: Leishmania donovani, 120 h, 5 days at 26° C., read-out: ED50 (the source's name). The procedure:
as §1
(§4) Leishmania donovani (ATCC #30142)) and Trypanosoma qambiense (TH114, obtained from R. Brun, Schweizer Tropeninstitut, Basel, Switzerland) were grown in THOSMEM, HOSMEM and PPDM-79 media respectively as described in J. J. Marr, R. L. Berens and D. J. Nelson, J. Science. 202, 1018 (1978), J. J. Marr, D. J. Nelson and R. L. Berens, Biochim. Biophys. Acta, 544, 360 (1978) and W. R. Fish, J. J. Marr and R. L. Berens, Biochim. Biophys. Acta, 714, 422 (1982). For drug sensitivity studies these organisms were grown in 10 ml of their respective media in 25 cm^2 tissue culture flasks. Cultures were inoculated to a cell density of […] and incubated for 5 days at 26° C. in a 5% CO2 atmosphere. Final cell density was determined by counting the cells on a Coulter Counter (Model ZBI); control cultures reached a final density of ≈2·10^7 /ml.
as §3

Data set [3] concerns Giardia lamblia. In words: In vitro antiparasitic activity against Giardia lamblia. The data set is classed as cell-based. The note with it: for IC50: Giardia duodenalis, 72 h, 3 days at 37° C., read-out: ED50 (the source's name); for relative activity against G. lamblia (in words): compared with compound 2. The procedure: as §1, §2, §3
In data set [4] the test system is Trypanosoma gambiense. In words: In vitro antiparasitic activity against Trypanosoma gambiense. The class given is cell-based. The note with it: for IC50: Trypanosoma brucei, GAMBIENSE, 120 h, 5 days at 26° C., read-out: ED50 (the source's name). The procedure:
as §1, §4, §3

Data set [5] is described as follows: Toxicity to U937 cells. The data set is classed as cell-based. The note with it: human, u937 cells; @ 1μg/ml; read-out: % Control (U937 cells).
For data set [6], the system named is U937 cells. In words: Toxicity to U937 cells. The class given is cell-based. The note with it: 1μg/ml.
In data set [7] the test system is Leishmania donovani, Trypanosoma qambiense, Giardia lamblia and Trichomonas vaqinalis. In words: In vitro antiparasitic activity against various pathogens (overall). The class given is cell-based. The note with it: compounds 2, 3 and 4 compared. The procedure: as §1
Leishmania donovani (ATCC #30142)) and Trypanosoma qambiense (TH114, obtained from R. Brun, Schweizer Tropeninstitut, Basel, Switzerland) were grown in THOSMEM, HOSMEM and PPDM-79 media respectively as described in J. J. Marr, R. L. Berens and D. J. Nelson, J. Science. 202, 1018 (1978), J. J. Marr, D. J. Nelson and R. L. Berens, Biochim. Biophys. […] Final cell density was determined by counting the cells on a Coulter Counter (Model ZBI); control cultures reached a final density of ≈2·10^7 /ml.
Giardia lamblia (PI, ATCC #30888) and Trichomonas vaqinalis (ATCC #3301) were grown in modified TYI medium in 13×100 mm screw cap tubes as described in R. L. Berens and J. J. Marr, Biochem. Pharm., 35, 4191 (1986). […] These parasites were counted by chilling tubes on ice for 30 min., then reading the optical density at 650 nm in a Gilford 300-N micro-sample spectrophotometer. Their cell number was obtained by comparing the absorbance to a standard curve constructed from numbers obtained by counting cells in a hemocytometer. […]

Data set [8] has as its system L. donovani. In words: Antileishmanial activity in animals (mouse model of visceral leishmaniasis). The data set is classed as in vivo, Leishmania donovani. The note with it: mice; for LDUs in Liver / Suppression (%): one week. The procedure:
Antiparasitic activity of the compounds of the invention in animals against L. donovani was determined in a manner similar to that previously described J. S. Keithly and S. G. Langreth, Amer. J. Trop. Med. Hyg., 32, 485 (1983) for a hamster model. Briefly, mice were infected with 5×10^7 stationary phase promastigotes subcultured in Schneider's drosophila medium with 15% heat inactivated fetal bovine serum. The compounds of the invention were administered by gavage nine days after infection and continued for one week. Positive controls received Pentostam intraperitoneally. Infected, untreated controls received water orally but no intraperitoneal sham injections. Mice were necropsied sixteen days after infection (seven days after the beginning of drug treatment).
% Suppression = 100 100(LDUs of experimental/LDUs of control)

Data set [9] concerns T. brucei EATRO 110. In words: Antiparasitic activity against T. brucei EATRO 110 in animals (mouse model). The note with it: mice; for % Cured / Average Survival / Range of Survival: once daily for 3 days. The class given is in vivo, Trypanosoma brucei. The procedure: Antiparasitic activity of the compounds of the invention in animals against T. brucei EATRO 110 was determined as described in C. J. Bacchi, R. L. Berens, H. C. Nathan, R. S. Klein, I. A. Elegbe, K. V. Rao, P. P. McCann and J. J. Marr, Antimicrob: Agents Chemother., 31, 1403 (1987) utilizing the mouse model described therein.
Mice (groups of 5) were infected with 2 × 10^5 trypanosomes and
treatment commenced 24 h post inoculation. Drugs were given once daily by
the route indicated for 3 days.

For data set [10] the following is noted: background; cited from earlier work.
Data set [11] has as its system certain parasites. The note with it: background; cited from earlier work.
Data set [12] concerns adenosine kinase. The note with it: certain human cell lines in-vitro; cited from earlier work.
For data set [13] the following is noted: background; cited from earlier work. The source holds these as a separate data set.

As for `N#Cc1ncn([C@@H]2O[C@H](COS(N)(=O)=O)[C@@H](O)[C@H]2O)n1` [Compound 4, 1-(5'-0-Sulfamoyl-β-D-ribofuranosyl)[1,2,4]triazole-3-carbonitrile], the IC50 is more than 25 µg/mL in data set [1], 1 to 5 µg/mL (≈ 3.28 to 16.4 µM) in [2], more than 25 µg/mL in data set [3] and 1 to 5 µg/mL (≈ 3.28 to 16.4 µM) in data set [4]. The “relative activity against G. lamblia (in words)” value in data set [3] is “about the same as for compound 2”.
Consider `NC(=O)c1ncn([C@@H]2O[C@H](COS(N)(=O)=O)[C@@H](O)[C@H]2O)n1` [Compound 2, 1-(5'-O-Sulfamoyl-β-D-ribofuranosyl)[1,2,4]triazole-3-carboxamide], for which the viability in data set [5] is 10%. Further, the “toxicity to U937 cells (in words)” value in data set [6] is given as “toxic”. Also, the IC50 in [1] is more than 25 µg/mL; in data set [2], 0.03 µg/mL (≈ 0.0928 µM); in data set [3], 5 to 10 µg/mL (≈ 15.5 to 30.9 µM); in [4], 0.01 to 0.05 µg/mL (≈ 0.0309 to 0.155 µM). For the same molecule, in data set [2], the “antileishmanial activity in vitro (in words)” value was “significant activity as an antileishmanial agent”. The “relative antiparasitic activity in vitro (in words)” value in [7] is “the most active and had the lowest ED50 against these organisms”. Also, the “LDUs in Liver” value in data set [8] (10 mg/kg/day, gavage) is given as 1244 ± 469 LDUs; in [8] (20 mg/kg/day, gavage) it was 765 ± 133 LDUs; in [8] (50 mg/kg/day, gavage) it was 501 ± 276 LDUs. In addition, the “Suppression (%)” value in data set [8] (10 mg/kg/day, gavage) stood at 18%; in data set [8] (20 mg/kg/day, gavage) it was 50%; in [8] (50 mg/kg/day, gavage), 67%. Also, the “antileishmanial activity in animals (in words)” value in data set [8] (compared with Pentostam) is given as “good suppression of the parasites in the livers; also recorded: response equivalent to that of optimized Pentostam; also recorded: as active as Pentostam; also recorded: as active as pentavalent antimony”. Besides, the “activity against T. gambiense (in words)” value in data set [4] was “shows antitrypanosomal activity; also recorded: killed by low concentrations”. The “% Cured” value in data set [9] (1 mg/kg (i.p.)), in data set [9] (5 mg/kg (i.p.)), in data set [9] (10 mg/kg (i.p.)), in [9] (20 mg/kg (i.p.)), in data set [9] (50 mg/kg (i.p.)) and in data set [9] (50 mg/kg (i.v.)) was 0% in each case. Further, the “% Cured” value in data set [9] (50 mg/kg (p.o.)) turned out to be 0%. The “Average Survival” value stood at 4.6 days in data set [9] (1 mg/kg (i.p.)); 4.8 days in data set [9] (5 mg/kg (i.p.)); 7.4 days in data set [9] (10 mg/kg (i.p.)); 7.4 days in data set [9] (20 mg/kg (i.p.)); 6.4 days in data set [9] (50 mg/kg (i.p.)); 6.4 days in data set [9] (50 mg/kg (i.v.)). Also, the “Average Survival” value in [9] (50 mg/kg (p.o.)) was found to be 11.6 days. Moreover, the “Range of Survival” value was 4 to 5 days in data set [9] (1 mg/kg (i.p.)); 4 to 6 days in data set [9] (5 mg/kg (i.p.)); 4 to 11 days in data set [9] (10 mg/kg (i.p.)); 4 to 11 days in data set [9] (20 mg/kg (i.p.)); 4 to 10 days in data set [9] (50 mg/kg (i.p.)); 4 to 12 days in [9] (50 mg/kg (i.v.)). Further, the “Range of Survival” value in [9] (50 mg/kg (p.o.)) fell in the range of 10 to 14 days. Also, in data set [9] (i.p., i.v., oral), the “activity against T. brucei in animals (in words)” value is “exhibits this activity when administered orally; also recorded: shows intraperitoneal, intravenous and oral activity; also recorded: oral activity of compound 2 is greater than intraperitoneal activity; also recorded: prolonged survival at all dosages tested”.
`Nc1ncnc2c1ncn2[C@@H]1O[C@H](COS(N)(=O)=O)[C@@H](O)[C@H]1O` [5'-O-sulfamoyl adenosine]: the “toxicity (in words)” value in data set [10] is given as “extremely toxic”. Besides, the “antiparasitic activity (in words)” value in data set [11] is “active in-vitro against certain parasites”.
On to `NC(=S)c1ncn([C@@H]2O[C@H](COS(N)(=O)=O)[C@@H](O)[C@H]2O)n1` [Compound 3, 1-(5'-O-Sulfamoyl-β-D-ribofuranosyl)[1,2,4]triazole-3-thiocarboxamide], for which the IC50 in data set [1] is 15 µg/mL (≈ 44.2 µM); in data set [2], 2.5 µg/mL (≈ 7.37 µM); in [3], more than 25 µg/mL; in data set [4], 0.5 µg/mL (≈ 1.47 µM). Also, the “relative activity against T. vaginalis (in words)” value in [1] (compared with compounds 2 or 4) was “greater activity; also recorded: greater activity than compounds 2 or 4”. In addition, the “relative activity against G. lamblia (in words)” value in data set [3] was “about the same as for compound 2”.
Consider `O.O.O.O.O.O.O.O.O.O=C([O-])[C@@H]1[O][Sb](=[O])([O][Sb]2(=[O])[O][C@H]([C@H](O)CO)[C@H](O)[C@H](C(=O)[O-])[O]2)[O][C@H]([C@H](O)CO)[C@@H]1O.[Na+].[Na+].[Na+]` (stereo partly drawn) [Pentostam, reference compound], for which, in [8] (50 mg/kg/day, intraperitoneal), the “LDUs in Liver” value turned out to be 411 ± 245 LDUs and the “Suppression (%)” value came out at 73%.
For `NC(=O)c1ncn([C@@H]2O[C@H](CO)[C@@H](O)[C@H]2O)n1` [Ribavirin, 1-(β-D-Ribofuranosyl)[1,2,4]triazole-3-carboxamide], the “toxicity (in words)” value in [10] was “relatively non-toxic”. For the same molecule, the “substrate for adenosine kinase (in words)” value in [12] was “substrate for adenosine kinase”. Further, the “antiparasitic activity (in words)” value in data set [11] is reported as “does not have antiparasitic activity”. In addition, the “antiviral activity (in words)” value in [13] was “broad spectrum antiviral agent”.

(Values after patent US4992426A, “Antiparasitic 5'-sulfamoyl nucleosides” (Nucleic Acid Research Institute, priority 1989, dated 1991).)
